“And” between values parts separate entries of the source, which are not always exact repeats. Equal entries are not always repeated.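 Five concentrations, 48 hours, 96-well plates. GI50 marks 50% less growth.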 The source made the active and inactive calls. Cut-off read from the data, not from the text of the source: active = GI50 up to about 1.1 µM and inactive = higher.
Key:
Experiment in all cases: DTP human tumour cell line panel, 48 h
MCF7 = test system: MCF7
HCC 2998 = test system: HCC 2998
MDA-MB-231 = test system: MDA-MB-231
HL-60 = test system: HL-60
BT-549 = test system: BT-549
SF-295 = test system: SF-295
PC-3 = test system: PC-3
NCI-H23 = test system: NCI-H23
OVCAR-3 = test system: OVCAR-3
KM12 = test system: KM12
SNB-75 = test system: SNB-75
RPMI-8226 = test system: RPMI-8226
NCI/ADR-RES = test system: NCI/ADR-RES
UACC-62 = test system: UACC-62
Hs-578T = test system: Hs-578T
T47D = test system: T47D

SMILES	GI50 (MCF7)	GI50 (HCC 2998)	GI50 (MDA-MB-231)	GI50 (HL-60)	GI50 (BT-549)	GI50 (SF-295)	GI50 (PC-3)	GI50 (NCI-H23)	GI50 (OVCAR-3)	GI50 (KM12)	GI50 (SNB-75)	GI50 (RPMI-8226)	GI50 (NCI/ADR-RES)	GI50 (UACC-62)	GI50 (Hs-578T)	GI50 (T47D)
CSc1nc2c(c(=O)[nH]1)N=C(c1ccccc1)CC(c1ccccc1)N2 (stereo unspecified)	12.3 µM (inactive)	29.3 µM (inactive)	18.5 µM (inactive)	22.9 µM (inactive)	28.5 µM (inactive)	34.7 µM (inactive)	55.1 µM (inactive)	31.3 µM (inactive)	39 µM (inactive)	14.1 µM (inactive)	11.7 µM (inactive)	28.5 µM (inactive)	24.4 µM (inactive)	23.6 µM (inactive)	–	–
O=C(Nc1ccc(Cl)cc1)c1cc(S(=O)(=O)Nc2n[nH]c(=O)[nH]2)c(SSc2cc(Cl)c(C(=O)Nc3ccc(Cl)cc3)cc2S(=O)(=O)Nc2n[nH]c(=O)[nH]2)cc1Cl	> 100 µM (inactive)	> 100 µM (inactive)	> 100 µM (inactive)	> 100 µM (inactive)	> 100 µM (inactive)	> 100 µM (inactive)	> 100 µM (inactive)	> 100 µM (inactive)	> 100 µM (inactive)	> 100 µM (inactive)	88.1 µM (inactive)	> 100 µM (inactive)	> 100 µM (inactive)	> 100 µM (inactive)	> 100 µM (inactive)	–
CC1(C)OCC2OC3([C@@H]4OC(C)(C)O[C@H]4CO)OC(C)(C)OC3C2O1 (stereo partly specified)	> 100 µM (inactive)	> 100 µM (inactive)	> 100 µM (inactive)	–	> 100 µM (inactive)	> 100 µM (inactive)	> 100 µM (inactive)	> 100 µM (inactive)	> 100 µM (inactive)	> 100 µM (inactive)	> 100 µM (inactive)	> 100 µM (inactive)	> 100 µM (inactive)	> 100 µM (inactive)	–	> 100 µM (inactive)
c1csc(-c2sc(-c3ccsc3)cc2Cc2ccsc2)c1	> 10 µM (inactive)	> 10 µM (inactive)	> 10 µM (inactive)	> 10 µM (inactive)	–	> 10 µM (inactive)	> 10 µM (inactive)	> 10 µM (inactive)	–	> 10 µM (inactive)	> 10 µM (inactive)	> 10 µM (inactive)	–	> 10 µM (inactive)	–	> 10 µM (inactive)
Cn1c(=O)c2c(ncn2Cc2ccc(O)c([N+](=O)[O-])c2)n(C)c1=O	> 100 µM (inactive)	–	> 100 µM (inactive)	> 100 µM (inactive)	> 100 µM (inactive)	> 100 µM (inactive)	> 100 µM (inactive)	> 100 µM (inactive)	> 100 µM (inactive)	> 100 µM (inactive)	> 100 µM (inactive)	> 100 µM (inactive)	> 100 µM (inactive)	> 100 µM (inactive)	> 100 µM (inactive)	> 100 µM (inactive)
COc1ccc(/C=C2\N/C(=N/N)N=C2Cl)cc1	> 100 µM (inactive)	> 100 µM (inactive)	> 100 µM (inactive)	> 100 µM (inactive)	–	> 100 µM (inactive)	> 100 µM (inactive)	> 100 µM (inactive)	> 100 µM (inactive)	> 100 µM (inactive)	> 100 µM (inactive)	> 100 µM (inactive)	> 100 µM (inactive)	–	> 100 µM (inactive)	> 100 µM (inactive)
CCOc1ccccc1-c1nc2c(s1)C(=O)c1ccccc1C2=O	12.2 µM (inactive)	14.5 µM (inactive)	2.84 µM (inactive)	1.92 µM (inactive)	–	12.6 µM (inactive)	12 µM (inactive)	10.5 µM (inactive)	2.25 µM (inactive)	15.4 µM (inactive)	11.4 µM (inactive)	7.26 µM (inactive)	–	3.78 µM (inactive)	19 µM (inactive)	16.9 µM (inactive)
CC(=O)NC(Cc1ccc(OP(=O)(OCc2ccc([N+](=O)[O-])o2)N(C)CCCCCl)cc1)C(=O)NC(C)c1ccc(OCC2CCCCC2)c(C(N)=O)c1 (stereo unspecified)	2.25 µM (inactive)	1.82 µM (inactive)	2.05 µM (inactive)	2.79 µM (inactive)	–	4.74 µM (inactive)	2.79 µM (inactive)	2.21 µM (inactive)	2.27 µM (inactive)	2.68 µM (inactive)	–	1.72 µM (inactive)	31.2 µM (inactive)	2.31 µM (inactive)	2.14 µM (inactive)	2.76 µM (inactive)
CC(C)=CCC/C(C)=C/Cc1c2c(c3oc(-c4ccc(O)c(O)c4)c(O)c(=O)c3c1O)C=CC(C)(C)O2	2.79 µM (inactive)	–	5.74 µM (inactive)	1.68 µM (inactive)	7.66 µM (inactive)	5.62 µM (inactive)	5.16 µM (inactive)	5.41 µM (inactive)	1.32 µM (inactive)	3.45 µM (inactive)	5.22 µM (inactive)	1.82 µM (inactive)	5.32 µM (inactive)	5.31 µM (inactive)	9.46 µM (inactive)	1.65 µM (inactive)
O=[N+]([O-])c1cnc(N(CCO)CCO)s1	> 100 µM (inactive)	> 100 µM (inactive)	> 100 µM (inactive)	> 100 µM (inactive)	–	> 100 µM (inactive)	> 100 µM (inactive)	> 100 µM (inactive)	> 100 µM (inactive)	> 100 µM (inactive)	< 0.01 µM (active)	–	> 100 µM (inactive)	> 100 µM (inactive)	–	> 100 µM (inactive)
O=c1[nH]nc(Cc2ccccc2)n1O	> 100 µM (inactive)	–	> 100 µM (inactive)	> 100 µM (inactive)	> 100 µM (inactive)	> 100 µM (inactive)	–	> 100 µM (inactive)	> 100 µM (inactive)	> 100 µM (inactive)	–	> 100 µM (inactive)	> 100 µM (inactive)	> 100 µM (inactive)	> 100 µM (inactive)	> 100 µM (inactive)
N#CC1=C(N)N2C(=O)/C(=C/c3ccccc3O)N=C2S1	48.1 µM (inactive)	92.9 µM (inactive)	> 100 µM (inactive)	20.8 µM (inactive)	–	> 100 µM (inactive)	> 100 µM (inactive)	95.3 µM (inactive)	66.2 µM (inactive)	> 100 µM (inactive)	32.9 µM (inactive)	30.6 µM (inactive)	> 100 µM (inactive)	–	31.3 µM (inactive)	> 100 µM (inactive)
O=C(NN=C1CCN(Cc2ccccc2)CC1)C(O)(c1ccccc1)c1ccccc1	> 100 µM (inactive)	> 100 µM (inactive)	> 100 µM (inactive)	> 100 µM (inactive)	–	> 100 µM (inactive)	–	> 100 µM (inactive)	–	> 100 µM (inactive)	> 100 µM (inactive)	> 100 µM (inactive)	> 100 µM (inactive)	> 100 µM (inactive)	> 100 µM (inactive)	> 100 µM (inactive)
CC1CC/C(=C\c2ccc(F)cc2)C2=C1C(c1ccc(F)cc1)NC(=S)N2 (stereo unspecified)	53.3 µM (inactive)	–	47.8 µM (inactive)	38.5 µM (inactive)	35.1 µM (inactive)	54.7 µM (inactive)	30 µM (inactive)	30.7 µM (inactive)	33.8 µM (inactive)	24.7 µM (inactive)	–	18.1 µM (inactive)	53.6 µM (inactive)	> 100 µM (inactive)	> 100 µM (inactive)	12.9 µM (inactive)
O=C1/C(=C/c2ccco2)NC(=S)N1CN1CCCCC1	36.3 µM (inactive)	–	> 100 µM (inactive)	–	–	> 100 µM (inactive)	> 100 µM (inactive)	> 100 µM (inactive)	> 100 µM (inactive)	> 100 µM (inactive)	58.5 µM (inactive)	28.8 µM (inactive)	10.5 µM (inactive)	57.9 µM (inactive)	83.6 µM (inactive)	–
COc1ccc(/C=N/N=C(\N)NO)c(OC)c1OC	11.5 µM (inactive)	17.2 µM (inactive)	65.2 µM (inactive)	23.1 µM (inactive)	–	31.6 µM (inactive)	36.3 µM (inactive)	31.3 µM (inactive)	16.4 µM (inactive)	4.69 µM (inactive)	–	31.6 µM (inactive)	14 µM (inactive)	20.6 µM (inactive)	> 100 µM (inactive)	28.1 µM (inactive)
CN(C)Cc1cc(C(=O)/C=C/c2ccc(Cl)cc2Cl)cc(CN(C)C)c1O	2.33 µM (inactive)	5.89 µM (inactive)	2.11 µM (inactive)	1.96 µM (inactive)	–	3.34 µM (inactive)	1.65 µM (inactive)	6.9 µM (inactive)	2.99 µM (inactive)	1.47 µM (inactive)	2.95 µM (inactive)	3.85 µM (inactive)	1.75 µM (inactive)	–	3.82 µM (inactive)	5.01 µM (inactive)
NCCN1CCCCCc2ccccc21	> 10 µM (inactive)	> 10 µM (inactive)	–	> 10 µM (inactive)	–	> 10 µM (inactive)	> 10 µM (inactive)	> 10 µM (inactive)	> 10 µM (inactive)	> 10 µM (inactive)	> 10 µM (inactive)	> 10 µM (inactive)	> 10 µM (inactive)	> 10 µM (inactive)	> 10 µM (inactive)	> 10 µM (inactive)
COC(=O)[C@@H]1CC(C(C[N+](=O)[O-])c2ccc(O[Si](C)(C)C(C)(C)C)cc2)C(=O)N1C(=O)OC(C)(C)C (stereo partly specified)	45.5 µM (inactive) and 29.6 µM (inactive)	–	> 100 µM (inactive)	–	–	> 100 µM (inactive) and 59.2 µM (inactive)	–	–	> 100 µM (inactive)	> 100 µM (inactive) and 76.6 µM (inactive)	> 100 µM (inactive)	–	–	–	> 100 µM (inactive)	22.1 µM (inactive) and 32.5 µM (inactive)

From ChEMBL document CHEMBL1201862, “PubChem BioAssay data set” (2004)
